This test concerns the target human wild type-CFTR (Homo sapiens, UniProt P13569). Put plainly: Cell-based YFP assay. Also on record: expressed in transfected cells; host or cells: CHO-K1 (Chinese hamster ovary). To be noted: CHO-K1 cells expressing human wild type-CFTR and YFP-H148Q/I152L; forskolin 20 μM = 100% activity; read-out: Cell-based YFP Assay (EC50) Concentration Range. In outline: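 I⁻-driven YFP fluorescence quenching at 37 °C: 2 s baseline, addition of 140 mM iodide solution, then 14 s of readings at 0.4 s intervals. Cells were CHO-K1 expressing human wild-type CFTR plus YFP-H148Q/I152L. EC50 derived from averaged triplicates.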

human wild type-CFTR, sequence (P13569 whole entry): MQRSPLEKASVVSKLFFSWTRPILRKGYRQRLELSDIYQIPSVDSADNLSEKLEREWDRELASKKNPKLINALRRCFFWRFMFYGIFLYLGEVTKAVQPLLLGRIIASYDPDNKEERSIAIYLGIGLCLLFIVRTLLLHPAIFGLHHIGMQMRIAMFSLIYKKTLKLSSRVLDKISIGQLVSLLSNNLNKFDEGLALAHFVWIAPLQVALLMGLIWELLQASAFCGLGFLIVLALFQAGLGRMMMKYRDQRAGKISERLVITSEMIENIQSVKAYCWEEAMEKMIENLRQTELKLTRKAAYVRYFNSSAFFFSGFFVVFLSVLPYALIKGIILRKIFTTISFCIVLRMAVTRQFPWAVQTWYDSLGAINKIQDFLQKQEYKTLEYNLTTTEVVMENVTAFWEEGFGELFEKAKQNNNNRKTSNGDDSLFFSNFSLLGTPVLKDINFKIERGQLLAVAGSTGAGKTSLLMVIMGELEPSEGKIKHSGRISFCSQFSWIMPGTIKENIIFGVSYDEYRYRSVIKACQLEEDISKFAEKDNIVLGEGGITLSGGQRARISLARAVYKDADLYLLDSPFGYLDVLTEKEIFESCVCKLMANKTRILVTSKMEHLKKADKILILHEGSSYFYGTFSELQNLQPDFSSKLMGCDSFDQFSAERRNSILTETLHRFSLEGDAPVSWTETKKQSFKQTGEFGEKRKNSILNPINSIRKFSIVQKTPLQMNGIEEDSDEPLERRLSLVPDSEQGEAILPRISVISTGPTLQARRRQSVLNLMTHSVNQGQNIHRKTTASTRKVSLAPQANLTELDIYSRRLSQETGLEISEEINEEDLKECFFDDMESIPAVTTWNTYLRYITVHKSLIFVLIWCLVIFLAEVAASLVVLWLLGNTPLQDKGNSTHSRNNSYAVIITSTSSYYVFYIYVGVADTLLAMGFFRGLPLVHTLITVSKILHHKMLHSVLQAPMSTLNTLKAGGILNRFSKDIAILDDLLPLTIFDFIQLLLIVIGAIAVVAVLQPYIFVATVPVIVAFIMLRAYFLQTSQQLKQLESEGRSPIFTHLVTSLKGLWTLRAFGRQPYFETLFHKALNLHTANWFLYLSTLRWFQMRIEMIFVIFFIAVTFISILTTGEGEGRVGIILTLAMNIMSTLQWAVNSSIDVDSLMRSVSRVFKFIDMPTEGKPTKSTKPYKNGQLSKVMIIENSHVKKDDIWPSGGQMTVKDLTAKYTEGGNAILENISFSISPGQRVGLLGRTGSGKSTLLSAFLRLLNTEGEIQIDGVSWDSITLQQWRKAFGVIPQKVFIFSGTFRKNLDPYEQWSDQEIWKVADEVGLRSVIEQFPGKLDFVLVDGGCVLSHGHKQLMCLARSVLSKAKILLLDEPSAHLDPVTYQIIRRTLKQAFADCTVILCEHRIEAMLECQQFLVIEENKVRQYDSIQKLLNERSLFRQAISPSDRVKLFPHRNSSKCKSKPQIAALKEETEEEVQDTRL

Regarding `COc1ccc(-c2ccnc3cc(C(=O)N4CCCc5cc(C(=O)N6CCOCC6)ccc54)nn23)cc1OC` [Compound 236, (7-(3,4-dimethoxyphenyl)pyrazolo[1,5-a]pyrimidin-2-yl)(6-(morpholine-4-carbonyl)-3,4-dihydroquinolin-1(2H)-yl)methanone], the EC50 is no less than 2000 nM.

`COc1ccc(-c2ccnc3cc(C(=O)N4CCc5ccc(C(=O)N6CCN(C)CC6)cc5C4)nn23)cc1OC` [Compound 237, (7-(3,4-dimethoxyphenyl)pyrazolo[1,5-a]pyrimidin-2-yl)(7-(4-methylpiperazine-1-carbonyl)-3,4-dihyroisoquinolin-2(1H)-yl)methanone]: the EC50 was no less than 2000 nM.

In the case of `COc1ccc(-c2ccnc3cc(C(=O)N4CCc5ccc(C(=O)N6CCOCC6)cc5C4)nn23)cc1OC` [Compound 238, (7-(3,4-dimethoxyphenyl)pyrazolo[1,5-a]pyrimidin-2-yl)(7-(morpholine-4-carbonyl)-3,4-dihydroisoquinolin-2(1H)-yl)methanone], the EC50 was no less than 2000 nM.

Turning to `COc1ccc(-c2ccnc3cc(C(=O)N[C@H]4CC[C@@H](C(=O)N5CCN(C)CC5)CC4)nn23)cc1OC` [Compound 240, 7-(3,4-dimethoxyphenyl)-N-((1S,4S)-4-(4-methylpiperazine-1-carbonyl)cyclohexyl) pyrazolo[1,5-a]pyrimidine-2-carboxamide], the EC50 was no less than 2000 nM.

For the molecule `COc1ccc(-c2ccnc3cc(C(=O)N[C@H]4CC[C@H](C(=O)N5CCN(C)CC5)CC4)nn23)cc1OC` [Compound 241, 7-(3,4-dimethoxyphenyl)-N-((1r,4r)-4-(4-methylpiperazine-1-carbonyl)cyclohexyl) pyrazolo[1,5-a]pyrimidine-2-carboxamide], the EC50 is no less than 2000 nM.

As to `COc1ccc(-c2ccnc3cc(C(=O)Nc4ccc(C(=O)OCCN5CCOCC5)cn4)nn23)cc1OC` [Compound 242, 2-morpholinoethyl 6-(7-(3,4-dimethoxyphenyl)pyrazolo [1,5-a]pyrimidine-2-carboxamido)nicotinate], the EC50 is less than 200 nM.

Regarding `COc1ccc(-c2ccnc3cc(C(=O)Nc4ccc(CN5CCN(C)CC5)cc4)nn23)cc1OC` [Compound 243, 7-(3,4-dimethoxyphenyl)-N-(4-((4-methylpiperazin-1-yl)methyl)phenyl)pyrazolo [1,5-a]pyrimidine-2-carboxamide], the EC50 lay within 200 to 2000 nM.

Take `COc1ccc(-c2ccnc3cc(C(=O)Nc4ccc(CN5CCOCC5)cc4)nn23)cc1OC` [Compound 244, 7-(3,4-dimethoxyphenyl)-N-(4-(morpholinomethyl)phenyl) pyrazolo[1,5-a]pyrimidine-2-carboxamide]: the EC50 is less than 200 nM.

As for `COc1ccc(-c2ccnc3cc(C(=O)NCc4ccc(N5CCN(C)CC5)cc4)nn23)cc1OC` [Compound 245, 7-(3,4-dimethoxyphenyl)-N-(4-(4-methylpiperazin-1-yl)benzyl)pyrazolo[1,5-a]pyrimidine-2-carboxamide], the EC50 was no less than 2000 nM.

In the case of `COc1ccc(-c2ccnc3cc(C(=O)NCc4ccc(N5CCOCC5)cc4)nn23)cc1OC` [Compound 246, 7-(3,4-dimethoxyphenyl)-N-(4-morpholinobenzyl)pyrazolo [1,5-a]pyrimidine-2-carboxamide], the EC50 is 200 to 2000 nM.

Take `COc1ccc(-c2ccnc3cc(C(=O)N[C@H]4CC[C@@H](C(=O)OCc5ccccn5)CC4)nn23)cc1OC` [Compound 247, pyridin-2-ylmethyl (1S,4S)-4-(7-(3,4-dimethoxyphenyl)pyrazolo [1,5-a]pyrimidine-2-carboxamido)cyclohexane-1-carboxylate]: the EC50 is 200 to 2000 nM.

Consider `COc1ccc(-c2ccnc3cc(C(=O)N(C)c4ccc(C(=O)N5CCN(C)CC5)cc4)nn23)cc1OC` [Compound 248, 7-(3,4-dimethoxyphenyl)-N-methyl-N-(4-(4-methylpiperazine-1-carbonyl)phenyl)pyrazolo [1,5-a]pyrimidine-2-carboxamide], for which the EC50 is no less than 2000 nM.

Regarding `COc1ccc(-c2ccnc3cc(C(=O)N(C)c4ccc(C(=O)N5CCOCC5)cc4)nn23)cc1OC` [Compound 249, 7-(3,4-dimethoxyphenyl)-N-methyl-N-(4-(morpholine-4-carbonyl)phenyl)pyrazolo[1,5-a]pyrimidine-2-carboxamide], the EC50 was no less than 2000 nM.

With `COc1ccc(-c2ccnc3cc(C(=O)N4CCc5cc(C(=O)N6CCN(C)CC6)ccc54)nn23)cc1OC` [Compound 250, (7-(3,4-dimethoxyphenyl)pyrazolo[1,5-a]pyrimidin-2-yl)(5-(4-methylpiperazine-1-carbonyl)indolin-1-yl) methanone], the EC50 was in the range of 200 to 2000 nM.

On to `COc1ccc(-c2ccnc3cc(C(=O)N4CCc5cc(C(=O)N6CCOCC6)ccc54)nn23)cc1OC` [Compound 251, (7-(3,4-dimethoxyphenyl)pyrazolo[1,5-a]pyrimidin-2-yl)(5-(morpholine-4-carbonyl)indolin-1-yl) methanone], for which the EC50 lay in the range of 200 to 2000 nM.

On to `COc1ccc(-c2ccnc3cc(C(=O)N4CCc5ccc(C(=O)N6CCN(C)CC6)cc54)nn23)cc1OC` [Compound 252, (7-(3,4-dimethoxyphenyl)pyrazolo[1,5-a]pyrimidin-2-yl)(6-(4-methylpiperazine-1-carbonyl)indolin-1-yl)methanone], for which the EC50 is no less than 2000 nM.

As to `COc1ccc(-c2ccnc3cc(C(=O)N4CCc5ccc(C(=O)N6CCOCC6)cc54)nn23)cc1OC` [Compound 253, (7-(3,4-dimethoxyphenyl)pyrazolo[1,5-a]pyrimidin-2-yl)(6-(morpholine-4-carbonyl)indolin-1-yl) methanone], the EC50 lay within 200 to 2000 nM.

With `CCOc1ccc(NC(=O)c2cc3ncc(-c4ccc(OC)c(OC)c4)cn3n2)cc1` [Compound 254, 6-(3,4-dimethoxyphenyl)-N-(4-ethoxyphenyl)pyrazolo[1,5-a]pyrimidine-2-carboxamide], the EC50 was no less than 2000 nM.

As to `COc1ccc(-c2ccnc3cc(C(=O)NC45CCC(C(=O)OCCCN6CCOCC6)(CC4)CC5)nn23)cc1OC` [Compound 255, 3-morpholinopropyl 4-(7-(3,4-dimethoxyphenyl)pyrazolo [1,5-a]pyrimidine-2-carboxamido)bicyclo[2.2.2] octane-1-carboxylate], the EC50 was less than 200 nM.

Turning to `COc1ccc(-c2ccnc3cc(C(=O)Nc4ccc(NC(=O)CN(C)C)cc4)nn23)cc1OC` [Compound 258, 7-(3,4-dimethoxyphenyl)-N-(4-(2-(dimethylamino)acetamido)phenyl)pyrazolo[1,5-a]pyrimidine-2-carboxamide], the EC50 is less than 200 nM.

Turning to `COc1ccc(-c2ccnc3cc(C(=O)N4CCN(C(=O)c5ccccc5Cl)[C@@H](C)C4)nn23)cc1OC` [Compound 260, (S)-(4-(2-chlorobenzoyl)-3-methylpiperazin-1-yl) (7-(3,4-dimethoxyphenyl)pyrazolo[1,5-a]pyrimidin-2-yl)methanone], the EC50 was 200 to 2000 nM.

`COc1ccc(-c2ccnc3cc(C(=O)N4CCN(C(=O)c5cccc(Cl)c5)[C@@H](C)C4)nn23)cc1OC` [Compound 261, (S)-(4-(3-chlorobenzoyl)-3-methylpiperazin-1-yl) (7-(3,4-dimethoxyphenyl)pyrazolo[1,5-a]pyrimidin-2-yl)methanone]: the EC50 was in the range of 200 to 2000 nM.

For the molecule `COc1ccc(-c2ccnc3cc(C(=O)N4CCN(C(=O)c5ccc(Cl)cc5)[C@@H](C)C4)nn23)cc1OC` [Compound 262, (S)-(4-(4-chlorobenzoyl)-3-methylpiperazin-1-yl) (7-(3,4-dimethoxyphenyl)pyrazolo[1,5-a]pyrimidin-2-yl)methanone], the EC50 was in the range of 200 to 2000 nM.

For the molecule `COc1ccc(-c2ccnc3cc(C(=O)N4CCN(C(=O)c5cccc(F)c5)[C@@H](C)C4)nn23)cc1OC` [Compound 263, (S)-(7-(3,4-dimethoxyphenyl)pyrazolo[1,5-a]pyrimidin-2-yl)(4-(3-fluorobenzoyl)-3-methylpiperazin-1-yl) methanone], the EC50 was in the range of 200 to 2000 nM.

Turning to `COc1ccc(-c2ccnc3cc(C(=O)Nc4ccc(C(=O)N5CCOCC5)nc4)nn23)cc1OC` [Compound 264, 7-(3,4-dimethoxyphenyl)-N-(6-(morpholine-4-carbonyl)pyridin-3-yl) pyrazolo[1,5-a]pyrimidine-2-carboxamide], the EC50 was no less than 2000 nM.

With `COc1ccc(-c2ccnc3cc(C(=O)Nc4ccc(C(=O)N5CCN(C)CC5)nc4)nn23)cc1OC` [Compound 265, 7-(3,4-dimethoxyphenyl)-N-(6-(4-methylpiperazine-1-carbonyl)pyridin-3-yl)pyrazolo[1,5-a] pyrimidine-2-carboxamide], the EC50 was no less than 2000 nM.

For `COc1ccc(-c2ccnc3cc(C(=O)Nc4ccc(N5CCN(C(C)C)CC5)cc4)nn23)cc1OC` [Compound 266, 7-(3,4-dimethoxyphenyl)-N-(4-(4-isopropylpiperazin-1-yl)phenyl)pyrazolo[1,5-a]pyrimidine-2-carboxamide], the EC50 is less than 200 nM.

With `COc1ccc(-c2ccnc3cc(C(=O)Nc4ccc(F)cc4)nn23)cc1OC` [Compound 267, 7-(3,4-dimethoxyphenyl)-N-(4-fluorophenyl)pyrazolo[1,5-a]pyrimidine-2-carboxamide], the EC50 is less than 200 nM.

As for `COc1ccc(-c2ccnc3cc(C(=O)Nc4ccc(Br)cc4)nn23)cc1OC` [Compound 268, N-(4-bromophenyl)-7-(3,4-dimethoxyphenyl)pyrazolo [1,5-a]pyrimidine-2-carboxamide], the EC50 was less than 200 nM.

`COc1ccc(-c2ccnc3cc(C(=O)Nc4ccc(N5CCCCC5)cc4)nn23)cc1OC` [Compound 269, 7-(3,4-dimethoxyphenyl)-N-(4-(piperidin-1-yl)phenyl)pyrazolo [1,5-a]pyrimidine-2-carboxamide]: the EC50 was less than 200 nM.

With `CCN1CCN(c2ccc(NC(=O)c3cc4nccc(-c5ccc(OC)c(OC)c5)n4n3)cc2)CC1` [Compound 270, 7-(3,4-dimethoxyphenyl)-N-(4-(4-ethylpiperazin-1-yl)phenyl)pyrazolo[1,5-a]pyrimidine-2-carboxamide], the EC50 is less than 200 nM.

Values taken from patent publication US20240199623A1 (ILDONG PHARMACEUTICAL CO., LTD., priority 2020, published 2024).
